From paper PMC9977316, “The kidney drug transporter OAT1 regulates gut microbiome–dependent host metabolism” (JCI Insight, 2023)
“Also recorded” adds a separate entry of the source. Counter-ions that a name gives are not always drawn.

Target: T1, OAT1 (Homo sapiens, UniProt Q4U2R8)
T1 sequence (Q4U2R8 1-563): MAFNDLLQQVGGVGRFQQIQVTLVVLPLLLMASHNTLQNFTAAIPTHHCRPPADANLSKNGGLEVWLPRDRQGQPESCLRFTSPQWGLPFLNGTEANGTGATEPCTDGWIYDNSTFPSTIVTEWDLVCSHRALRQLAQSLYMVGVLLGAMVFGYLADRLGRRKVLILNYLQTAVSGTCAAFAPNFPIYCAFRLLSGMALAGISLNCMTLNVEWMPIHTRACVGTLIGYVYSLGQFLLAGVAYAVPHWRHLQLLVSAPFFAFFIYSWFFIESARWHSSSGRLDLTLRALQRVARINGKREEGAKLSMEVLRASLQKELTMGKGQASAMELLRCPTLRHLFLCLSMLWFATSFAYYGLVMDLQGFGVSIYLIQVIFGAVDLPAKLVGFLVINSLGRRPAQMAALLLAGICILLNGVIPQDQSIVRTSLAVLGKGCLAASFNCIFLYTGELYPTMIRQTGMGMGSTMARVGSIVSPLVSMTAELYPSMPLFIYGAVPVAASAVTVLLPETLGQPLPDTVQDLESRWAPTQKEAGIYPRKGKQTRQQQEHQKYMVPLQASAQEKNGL
Assay: not given
Design: The full-length protein was expressed as GFP fusion in HEK293 cells to check for protein expression; GFP; FLAG (inferred from capture on anti-flag antibody beads); made in house; host or cells: HEK293 cells, third-generation lentiviral vector
Details: cited from earlier work

Molecule	In vitro cell–based transport assay
NCCc1c[nH]c2ccc(O)cc12 [Serotonin]	× (17)

Target: T2, OAT1 (Mus musculus, UniProt Q8VC69)
T2 construct: from tissue; host or cells: living mice (kidney proximal tubule); Oat1-KO versus WT
T2 sequence (Q8VC69 1-545): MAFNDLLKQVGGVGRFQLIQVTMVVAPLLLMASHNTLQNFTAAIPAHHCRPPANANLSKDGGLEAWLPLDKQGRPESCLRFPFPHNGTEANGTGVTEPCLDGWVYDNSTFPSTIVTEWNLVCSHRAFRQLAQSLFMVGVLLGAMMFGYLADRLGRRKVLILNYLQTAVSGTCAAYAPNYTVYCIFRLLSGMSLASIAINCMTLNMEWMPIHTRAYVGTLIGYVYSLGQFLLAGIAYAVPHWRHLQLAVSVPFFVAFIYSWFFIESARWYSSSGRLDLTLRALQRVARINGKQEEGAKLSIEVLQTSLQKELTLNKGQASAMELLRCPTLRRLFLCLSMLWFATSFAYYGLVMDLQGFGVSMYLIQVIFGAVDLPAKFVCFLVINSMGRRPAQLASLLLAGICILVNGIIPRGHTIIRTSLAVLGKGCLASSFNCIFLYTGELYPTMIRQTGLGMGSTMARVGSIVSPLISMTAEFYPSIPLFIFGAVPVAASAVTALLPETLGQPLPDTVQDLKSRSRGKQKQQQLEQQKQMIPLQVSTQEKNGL
Assay: Serum metabolomics, effect of genotype (Oat1-KO versus WT), 2-way ANOVA
Format: in vivo
Details: 2-way ANOVA, loss of Oat1 x microbiome depletion
Description: Adult male KO and WT mice were housed in a 12-hour light-dark cycle and allowed ad libitum access to food and water. Oat1-KO mice were generated and maintained as previously described ([49]). Feces were collected from mice weekly in sterile 2 mL centrifuge tubes, flash frozen, and stored at –80°C. Animals were sacrificed by CO2 inhalation, and blood samples were extracted from mice by cardiac puncture. Serum was extracted, and samples were flash frozen and stored at –80°C until further analysis.
Serum samples were shipped on dry ice to Metabolon Inc. for preparation and metabolomics. Per Metabolon Inc., proteins were removed from the serum and 5 fractions were generated for different mass spectrometry methods. […] Peaks were identified and associated with defined compounds based on retention time, mass/charge ratio, and MS/MS spectral data. Quantification of peaks was performed using AUC.
Scaled intensity for each metabolite was normalized to volume, and missing values were imputed with the lowest value for the compound. For all fold-change calculations, scaled intensities were averaged and compared with each other. Statistical comparisons were performed using the Python module, statsmodels (https://www.statsmodels.org/stable/index.html) and were made between groups by 2-way ANOVA following log transformation and FDR correction, with P < 0.05 being considered significant. Enrichment for each superpathway and subpathway was calculated using the number of total metabolites measured and the number of metabolites in each respective superpathway and subpathway, as previously described ([16]).

Molecule	interaction between genotype and treatment on serum level
C[C@H](CCC(=O)O)[C@H]1CC[C@H]2[C@@H]3CC[C@@H]4C[C@H](O)CC[C@]4(C)[C@H]3C[C@H](O)[C@]12C [deoxycholate]	impacted by the interaction between the variables; also recorded: affected by genotype-treatment interaction

Same assay, conditions: direction of serum change by loss of Oat1 and by microbiome depletion

Molecule	Status
CC(=O)NCCCC[C@H](NC(C)=O)C(=O)O [N2,N6-diacetyllysine]	Group 3
CC(=O)N[C@@H](CCCCN(C)C)C(=O)O [N2-acetyl,N6,N6-dimethyllysine]	Group 3
CC(=O)N[C@@H](CCCCNC(N)=O)C(=O)O [N-acetylhomocitrulline]	Group 3
O=S(=O)(O)Oc1ccccc1O [catechol sulfate]	Group 2
C[C@H](CCC(=O)O)[C@H]1CC[C@H]2[C@@H]3CC[C@@H]4C[C@H](O)CC[C@]4(C)[C@H]3C[C@H](O)[C@]12C [deoxycholate]	Group 2
COc1cc(CC(=O)O)ccc1OS(=O)(=O)O [homovanillate sulfate]	Group 2
O=S(=O)(O)Oc1ccc(O)cc1 [hydroquinone sulfate]	Group 2
O=C1Cc2ccccc2N1 [indolin-2-one]	Group 2
CS(=O)(=O)CC[C@H](N)C(=O)O [methionine sulfone]	Group 1
Cc1ccc(OS(=O)(=O)O)cc1 [p-cresol sulfate]	Group 2
O=C(O)CNC(=O)Cc1ccccc1 [phenylacetylglycine]	Group 2
O=C(O)CCC(=O)NCCS(=O)(=O)O [succinoyltaurine]	Group 1

Same assay, conditions: statistical analysis of the serum metabolome

Molecule	effect of genotype on serum level
O=C(O)Cc1ccccc1O [2-hydroxyphenylacetate]	affected by genotype
O=C(O)/C=C/c1ccc(O)cc1 [4-hydroxycinnamate]	not impacted by either variable

Tested on: OAT1
Assay: not given
Details: plasma, before vs 5 hours after oral probenecid; cited from earlier work

Molecule	Elevated in plasma of probenecid-treated humans
O=S(=O)(O)Oc1ccc(O)cc1 [hydroquinone sulfate]	✓
O=C1Cc2ccccc2N1 [indolin-2-one]	✓
Cc1ccc(OS(=O)(=O)O)cc1 [p-cresol sulfate]	✓
O=C(O)CNC(=O)Cc1ccccc1 [phenylacetylglycine]	✓

Same assay, conditions: plasma; cited from earlier work

Molecule	plasma level in probenecid treated humans
Cc1ccc(OS(=O)(=O)O)cc1 [p-cresol sulfate]	significantly elevated in the plasma

Same assay, conditions: urine, before vs 5 hours after oral probenecid; cited from earlier work

Molecule	Decreased in urine of probenecid-treated humans
CC(=O)NCCCC[C@H](NC(C)=O)C(=O)O [N2,N6-diacetyllysine]	✓
CC(=O)N[C@@H](CCCCN(C)C)C(=O)O [N2-acetyl,N6,N6-dimethyllysine]	✓
CC(=O)N[C@@H](CCCCNC(N)=O)C(=O)O [N-acetylhomocitrulline]	✓
O=S(=O)(O)Oc1ccccc1O [catechol sulfate]	✓
COc1cc(CC(=O)O)ccc1OS(=O)(=O)O [homovanillate sulfate]	✓
O=C1Cc2ccccc2N1 [indolin-2-one]	✓
CS(=O)(=O)CC[C@H](N)C(=O)O [methionine sulfone]	✓
Cc1ccc(OS(=O)(=O)O)cc1 [p-cresol sulfate]	✓
O=C(O)CCC(=O)NCCS(=O)(=O)O [succinoyltaurine]	✓

Target: T2, OAT1
Assay: Tc-99m MAG3 imaging and postmortem γ counts in Oat1-KO and WT mice
Format: in vivo
Details: 4 of 5 pairs, WT vs Oat1-KO
Description: Live-imaging experiments were performed with the In Vivo Imaging Shared Resource at the Moore’s Cancer Center at the UCSD. Mice were transported from the vivarium to the In Vivo Imaging Shared Resource. In total, 100 μCi of Tc-99m MAG3 was injected by tail vein into mice prior to imaging. Adult, male KO (n = 5) and WT mice (n = 5) were imaged in 5 separate pairs containing 1 KO mouse and 1 WT mouse each. Mice were initially weighed and anesthetized (2% isoflurane, 200 mL/min flow of O2). Mice were placed on their backs on the high-resolution γ imager (γ imager; BioSpace) fitted with a high-resolution, low-energy collimator. For 30 minutes, time-activity curves were collected from the kidneys, liver, and bladder. Following imaging, blood, urine, kidneys, liver, and spleen were isolated and weighed from each mouse for radioactive assessment using a γ counter.

Molecule	bladder levels, postmortem γ counts scaled to weight	blood levels, postmortem γ counts scaled to weight
Tc-99m mercaptoacetyl-triglycine [Tc-99m MAG3]	higher in the WT mice	higher in the KO mice

Same assay, conditions: tail-vein injection, 30 minutes, γ camera, WT vs Oat1-KO

Molecule	time to maximal bladder levels
Tc-99m mercaptoacetyl-triglycine [Tc-99m MAG3]	WT bladders reached their maximal levels of Tc-99m MAG3 more quickly than the Oat1-KO mice

Target: T1, OAT1
Assay: In vitro OAT1 transport assay (inhibition of 6-carboxyfluorescein uptake)
Format: cell-based
Design: host or cells: HEK (HEK293) cells stably overexpressing human OAT1
Details: not given
Description: Human embryonic kidney (HEK) cells stably overexpressing human OAT1 (SOLVO Biotechnology) were used for in vitro inhibition assays. […] Prior to functional assays, cells were plated in 96-well plates and grown for 24 hours or until confluent in media without blasticidin. Metabolites were added at either 1 mM or 2 mM, and serial dilution was performed down all columns. A fixed concentration of 10 μM 6-carboxyfluorescein (6-CF) was introduced to each well for 10 minutes. Cells were rinsed 3 times in ice-cold PBS, and the fluorescence was measured using a fluorescence plate reader. IC50 values were calculated using GraphPad Prism 9. Controls were carried out using probenecid, an established inhibitor of OAT1 function.

Molecule	IC50
O=C(O)Cc1ccccc1O [2-hydroxyphenylacetate]	39.2 µM
O=C(O)/C=C/c1ccc(O)cc1 [4-hydroxycinnamate]	13.3 µM
C[C@H](CCC(=O)O)[C@H]1CC[C@H]2[C@@H]3CC[C@@H]4C[C@H](O)CC[C@]4(C)[C@H]3C[C@H](O)[C@]12C [deoxycholate]	19.2 µM
O=C(O)CCc1c[nH]c2ccccc12 [indolepropionate]	39.2 µM

Same assay, conditions: this work

Molecule	In vitro cell–based transport assay
O=C(O)Cc1ccccc1O [2-hydroxyphenylacetate]	× (this work)
O=C(O)/C=C/c1ccc(O)cc1 [4-hydroxycinnamate]	× (this work)
C[C@H](CCC(=O)O)[C@H]1CC[C@H]2[C@@H]3CC[C@@H]4C[C@H](O)CC[C@]4(C)[C@H]3C[C@H](O)[C@]12C [deoxycholate]	× (this work)
O=C(O)CCc1c[nH]c2ccccc12 [indolepropionate]	× (this work)
